Measured values published in PubChem BioAssay AID288 (DTP/NCI, 2004).
Several values for one entry are separate records, joined by “and”; a condition that tells them apart may be missing. Equal values may be shown once. Results filed as inconclusive are left out.

System: BDF1 mice, M5076 sarcoma s.c., survival/tumor T/C
Assay: NCI In Vivo Anticancer Drug Screen. Data for tumor model Sarcoma M5076 (subcutaneous) in B6D2F1 (BDF1) mice
Protocol: The antitumor activity of compounds was measured in mice bearing transplantable tumors. Survival or tumor size were measured and the results are expressed as the measurement made in the treated group (T) divided by the measurement made in the vehicle treated control group (C). The tumor model used in this assay is Sarcoma M5076 (subcutaneous) in B6D2F1 (BDF1) mice

N[C@H](C(=O)O)[C@@H]1CC(Cl)=NO1
T/C (endpoint: mean tumor weight, dose: 2.0 mg/kg/injection, schedule: Q02DX011 (ip), vehicle: saline, higher = larger tumour): 2 % of control | T/C (endpoint: median survival time, dose: 2.0 mg/kg/injection, schedule: Q01DX010 (ip), vehicle: saline, higher = longer survival): 165 % of control | T/C (endpoint: median survival time, dose: 4.0 mg/kg/injection, schedule: Q01DX010 (ip), vehicle: saline, higher = longer survival): 177 % of control | T/C (endpoint: median survival time, dose: 8.0 mg/kg/injection, schedule: Q01DX010 (ip), vehicle: saline, higher = longer survival): 178 % of control | T/C (endpoint: median survival time, dose: 16.0 mg/kg/injection, schedule: Q01DX010 (ip), vehicle: saline, higher = longer survival): 90 % of control | T/C (endpoint: median survival time, dose: 32.0 mg/kg/injection, schedule: Q04DX005 (ip), vehicle: saline, higher = longer survival): 171 % of control and 176 % of control | T/C (endpoint: median survival time, dose: 64.0 mg/kg/injection, schedule: Q04DX005 (ip), vehicle: saline, higher = longer survival): 184 % of control and 186 % of control | T/C (endpoint: median survival time, dose: 128.0 mg/kg/injection, schedule: Q04DX005 (ip), vehicle: saline, higher = longer survival): 193 % of control and 195 % of control

CC1(C)N=C(N)N=C(N)N1c1ccc(CCCCc2ccc(S(=O)(=O)F)cc2Cl)c(Cl)c1
T/C (endpoint: median survival time, dose: 1.8 mg/kg/injection, schedule: Q01DX005 (iv), vehicle: other, higher = longer survival): 97 % of control | T/C (endpoint: median survival time, dose: 3.7 mg/kg/injection, schedule: Q01DX001 (iv), vehicle: other, higher = longer survival): 107 % of control | T/C (endpoint: median survival time, dose: 3.7 mg/kg/injection, schedule: Q01DX005 (iv), vehicle: other, higher = longer survival): 97 % of control | T/C (endpoint: median survival time, dose: 5.18 mg/kg/injection, schedule: Q01DX009 (ip), vehicle: other, higher = longer survival): 162 % of control | T/C (endpoint: median survival time, dose: 5.4 mg/kg/injection, schedule: Q01DX009 (ip), vehicle: other, higher = longer survival): 151 % of control | T/C (endpoint: median survival time, dose: 7.5 mg/kg/injection, schedule: Q01DX001 (iv), vehicle: other, higher = longer survival): 91 % of control | T/C (endpoint: median survival time, dose: 7.5 mg/kg/injection, schedule: Q01DX005 (iv), vehicle: other, higher = longer survival): 114 % of control | T/C (endpoint: median survival time, dose: 8.0 mg/kg/injection, schedule: Q01DX009 (ip), vehicle: other, higher = longer survival): 151 % of control | T/C (endpoint: median survival time, dose: 8.64 mg/kg/injection, schedule: Q01DX009 (ip), vehicle: other, higher = longer survival): 176 % of control | T/C (endpoint: median survival time, dose: 10.0 mg/kg/injection, schedule: Q01DX009 (ip), vehicle: saline with Tween-80, higher = longer survival): 150 % of control | T/C (endpoint: median survival time, dose: 14.4 mg/kg/injection, schedule: Q01DX009 (ip), vehicle: other, higher = longer survival): 190 % of control | T/C (endpoint: median survival time, dose: 15.0 mg/kg/injection, schedule: Q01DX001 (ip), vehicle: other, higher = longer survival): 110 % of control | T/C (endpoint: median survival time, dose: 15.0 mg/kg/injection, schedule: Q01DX005 (ip), vehicle: other, higher = longer survival): 124 % of control | T/C (endpoint: median survival time, dose: 15.0 mg/kg/injection, schedule: Q01DX009 (oral), vehicle: other, higher = longer survival): 89 % of control | T/C (endpoint: median survival time, dose: 20.0 mg/kg/injection, schedule: Q01DX009 (ip), vehicle: other, higher = longer survival): 155 % of control | T/C (endpoint: median survival time, dose: 20.0 mg/kg/injection, schedule: Q01DX009 (ip), vehicle: saline with Tween-80, higher = longer survival): 177 % of control | T/C (endpoint: median survival time, dose: 27.0 mg/kg/injection, schedule: Q01DX009 (ip), vehicle: saline with Tween-80, higher = longer survival): 168 % of control | T/C (endpoint: median survival time, dose: 30.0 mg/kg/injection, schedule: Q01DX001 (ip), vehicle: other, higher = longer survival): 103 % of control | T/C (endpoint: median survival time, dose: 30.0 mg/kg/injection, schedule: Q01DX001 (oral), vehicle: other, higher = longer survival): 110 % of control | T/C (endpoint: median survival time, dose: 30.0 mg/kg/injection, schedule: Q01DX005 (oral), vehicle: other, higher = longer survival): 97 % of control | T/C (endpoint: median survival time, dose: 30.0 mg/kg/injection, schedule: Q01DX009 (ip), vehicle: other, higher = longer survival): 169 % of control | T/C (endpoint: median survival time, dose: 30.0 mg/kg/injection, schedule: Q01DX009 (oral), vehicle: other, higher = longer survival): 120 % of control | T/C (endpoint: median survival time, dose: 40.0 mg/kg/injection, schedule: Q01DX009 (ip), vehicle: saline with Tween-80, higher = longer survival): 163 % of control and 217 % of control and 232 % of control | T/C (endpoint: median survival time, dose: 60.0 mg/kg/injection, schedule: Q01DX001 (ip), vehicle: other, higher = longer survival): 111 % of control | T/C (endpoint: median survival time, dose: 60.0 mg/kg/injection, schedule: Q01DX001 (oral), vehicle: other, higher = longer survival): 97 % of control | T/C (endpoint: median survival time, dose: 60.0 mg/kg/injection, schedule: Q01DX005 (oral), vehicle: other, higher = longer survival): 117 % of control | T/C (endpoint: median survival time, dose: 60.0 mg/kg/injection, schedule: Q01DX009 (ip), vehicle: saline with Tween-80, higher = longer survival): 204 % of control and 239 % of control | T/C (endpoint: median survival time, dose: 60.0 mg/kg/injection, schedule: Q01DX009 (oral), vehicle: other, higher = longer survival): 114 % of control | T/C (endpoint: median survival time, dose: 62.0 mg/kg/injection, schedule: Q01DX009 (ip), vehicle: saline with Tween-80, higher = longer survival): 255 % of control | T/C (endpoint: median survival time, dose: 89.0 mg/kg/injection, schedule: Q01DX009 (ip), vehicle: saline with Tween-80, higher = longer survival): 224 % of control | T/C (endpoint: median survival time, dose: 120.0 mg/kg/injection, schedule: Q01DX001 (oral), vehicle: other, higher = longer survival): 97 % of control | T/C (endpoint: median survival time, dose: 120.0 mg/kg/injection, schedule: Q01DX005 (oral), vehicle: other, higher = longer survival): 116 % of control | T/C (endpoint: median survival time, dose: 120.0 mg/kg/injection, schedule: Q01DX009 (oral), vehicle: other, higher = longer survival): 104 % of control | T/C (endpoint: median survival time, dose: 240.0 mg/kg/injection, schedule: Q01DX001 (ip), vehicle: other, higher = longer survival): 123 % of control | T/C (endpoint: median survival time, dose: 240.0 mg/kg/injection, schedule: Q01DX001 (oral), vehicle: other, higher = longer survival): 109 % of control | T/C (endpoint: median survival time, dose: 240.0 mg/kg/injection, schedule: Q01DX005 (oral), vehicle: other, higher = longer survival): 117 % of control | T/C (endpoint: median survival time, dose: 240.0 mg/kg/injection, schedule: Q01DX009 (oral), vehicle: other, higher = longer survival): 110 % of control | T/C (endpoint: median survival time, dose: 480.0 mg/kg/injection, schedule: Q01DX001 (oral), vehicle: other, higher = longer survival): 100 % of control | T/C (endpoint: median survival time, dose: 480.0 mg/kg/injection, schedule: Q01DX005 (oral), vehicle: other, higher = longer survival): 109 % of control | T/C (endpoint: median survival time, dose: 480.0 mg/kg/injection, schedule: Q01DX009 (oral), vehicle: other, higher = longer survival): 124 % of control
